Results on four compounds are retold here after patent publication US12594292B2, “Antiviral prodrugs, intermediate-and long-acting formulations and methods” (priority 2022, dated 2026).

Data set [1] is described as follows: Seven day oral pharmacokinetics in Syrian hamsters. In kind it is in vivo. Conditions: after oral administration of ODBG-P-RVn. On the procedure:
ODBG-P-RVn in 0.1M sodium carbonate/bicarbonate buffer, pH 9.0, was administered to Syrian Hamsters by oral gavage every 12 hours for seven days. ODBG-P-RVn was present as the sodium salt.
FIG. 4A and FIG. 4B depict the seven day oral pharmacokinetics in Syrian hamsters. Syrian hamsters were given vehicle or ODBG-P-RVn by oral gavage every 12 hours for 7 days. Groups of 3 animals received vehicle or drug at doses of 16.9 and 13.2 mg/kg. Animals were weighed daily and monitored for clinical signs.
Analytical Methods: ODBG-P-RVn: Hamster plasma samples (10 μL) containing ODBG-P-RVn and K2EDTA as the anticoagulant were added to polypropylene tubes containing water (100 μL), internal standard solution (10 μL; 1,000 ng/mL of ODE-P-RVn in ACN:DMF (1:1, v/v)), and 10 μL of ACN:DMF (1:1, v/v). The solutions were mixed, then acidified with phosphoric acid, 85% w/v:water (1:19, v/v; 10 μL), mixed, then diluted with 200 μL of IPA, mixed, then diluted with 500 μL of water, and mixed. The samples were extracted with a Sep-Pak® tC18 96-well solid phase extraction plate (25 mg; Waters, Milford, MA). Extraction occurred under positive pressure conditions using nitrogen. Samples were washed serially with 1 mL of water:acetonitrile:formic acid (475:25:0.5, v/v/v) and 0.4 mL of water:acetonitrile:formic acid (350:150:0.5, v/v/v) before being serially eluted with 100 μL and 150 μL of water:{acetonitrile:isopropyl alcohol (1:1, v/v)}:formic acid:ammonium formate:citric acid solution, 2% w/v (15:85:0.1:0.1:0.1, v/v/v/w/v). The citric acid solution was prepared as water:citric acid monohydrate (20:0.4, v/w). After elution, 100 μL of water was added to each sample. The ODBG-P-RVn extracts were analyzed using an Agilent 1200 HPLC system (Agilent, Santa Clara, CA) coupled to an API5500 mass analyzer (SCIEX, Foster City, CA). Analytes were chromatographically separated using a Dacapo DX-C18 MF column (100×2 mm, 2.5 μm; ImtaktUSA, Portland, OR) using a mobile phase system consisting of Mobile Phase A (water:formic acid:[water:ammonium formate:citric acid (25:5:0.5, v/w/w)](1.000:1:1, v/v/v) and Mobile Phase B (acetonitrile:isopropyl alcohol:formic acid:[water:ammonium formate:citric acid (25:5:0.5, v/w/w)](800:200:1:1, v/v/v/v). The total analytical run time was 4.5 minutes. The mobile phase was nebulized using heated nitrogen in a Turbo-V source/interface set to electrospray positive ionization mode. The ionized compounds were detected using multiple reaction monitoring with transitions m/z 788.4>229 (V2043) and 668.4>467.2 (V2041). This method is applicable for measuring ODBG-P-RVn concentrations ranging from 6.25 to 3,000 ng/mL using 10.0 μL of plasma for extraction. The peak areas of ODBG-P-RVn and RVn were acquired using Analyst v. 1.6.2 (SCIEX, Framingham, MA). The calibration curve was obtained by fitting the peak area ratios of the analyte/I.S. and the standard concentrations to a linear equation with 1/x2 weighting, using Analyst. The equation of the calibration curve was then used to interpolate the concentrations of the analyte in the samples using their peak area ratios. The peak areas used for the calculations were not rounded.
The solutions were mixed and centrifuged at 16,000 g for five minutes. […] The GS-441524 extracts were analyzed using an Acquity UPLC system (Waters, Milford, MA) coupled to a G2-S QTof mass analyzer (Waters, Milford, MA). […]

Data set [2] can be described thus: in vitro. The conditions noted are these: human.
The nature of data set [3]: CellTiter-Glo luminescent cell viability assay, Vero E6 (Example 3). In kind it is cell-based. The conditions noted are these: African green monkey. On the procedure:
CellTiter-glo luminescent cell viability assay: Approximately 10^4 Vero E6 cells per well were seeded in opaque walled 96 well cell culture plates and incubated overnight. Compounds or controls were added at the indicated concentrations. […] Viability was calculated compared to untreated controls and CC50 values were calculated using Prism 8.
Determination of Cytotoxicity: The 50% cytotoxic concentrations (CC50) were determined with Cell Titer Glo (Cat. #G7570, Promega, Madison, WI) according to the manufacturer's instructions. The calculated CC50 values are shown in the foregoing table.
Relative viability was measured by CellTiter-Glo luminescent cell viability assay, as depicted at FIG. 2.

The nature of data set [4]: in vitro. Conditions: human. This is another data set of the same source.
The nature of data set [5]: in vitro. The conditions noted are these: African green monkey.
Data set [6] concerns SARS-CoV-2 isolate USA-WA1/2020. In words: SARS-CoV-2 infection in Caco-2 cells, qRT-PCR (Example 7). It is filed as cell-based. Conditions: Severe acute respiratory syndrome coronavirus 2; Caco-2 cells, MOI 0.01, 48 hours. (In general: Quantitative PCR measures a nucleic acid by following its amplification.)
For data set [7] the test system is unchanged. Nature of the data set: SARS-CoV-2 infection in PSC-human lung cells, qRT-PCR (Example 7). In kind it is cell-based. Conditions: Severe acute respiratory syndrome coronavirus 2; PSC-human lung cells, MOI 0.01, 48 hours.
Data set [8] in a line: in vitro. The conditions noted are these: human. The source holds these as a separate data set.
Data set [9] in a line: in vitro. The conditions noted are these: human. This is another data set of the same source.
The subject of data set [10] is Calu 3. Nature of the data set: Antiviral evaluation of cyanobenzyl analogs, Calu 3. In kind it is cell-based.
The subject of data set [11] is Calu 3. In words: Cytotoxicity of cyanobenzyl analogs, Calu 3.
Data set [12] deals with Huh7.5. In words: Antiviral evaluation of cyanobenzyl analogs, Huh7.5. It is filed as cell-based.
Data set [13] has as its system Huh7.5. Nature of the data set: Cytotoxicity of cyanobenzyl analogs, Huh7.5.
Data set [14] in a line: Cell viability assay CellTiter-Glo, Caco-2 cells (Example 7). The conditions noted are these: human.
Data set [15] is described as follows: Cell viability assay CellTiter-Glo, Calu-3 cells (Example 7). Conditions: human. For orientation: Cellular ATP, detected with luciferase, serves as a proxy for viable cell number.
For data set [16], the system named is VERO E6 cells. Nature of the data set: Generation of remdesivir triphosphate in Vero E6 cells (LC/MS/MS). The conditions noted are these: 1 micromolar drug, up to 48 hours. In kind it is in vitro ADME. On the procedure:
In this example, Vero E6 cells were plated in 6 well plates at about 3.4×10^5 cells per well in 2 mL of media (DMEM, 10% FBS).
Cells were then incubated at 37° C. for 24 hours. Media was then aspirated and replaced with 2 mL of control media (fresh Dulbecco's Modified Eagle's Medium (DMEM), 10% FBS) or 2 mL of media with drug at a concentration of 1 μM. Cell were incubated with the various drugs for 48 hours. The media was aspirated, the cells rinsed twice with phosphate-buffered saline (PBS), trypsinized for 5 minutes with 1 mL ATV, triturated and removed to a 15 mL centrifuge tube, rinsed with 1 mL PBS, which was also then removed to the 15 mL centrifuge tube, and the cells were triturated again. Cells were counted in a Reichert hemocytometer using two 10 μL samples, and the number of cells in each sample was determined.
Cells were centrifuged at 1200 rpm for 10 minutes, diluent aspirated and the pellet resuspended in 250 μL of methanol/distilled water (70/30) and analyzed by LC/MS/MS. The results, which are depicted at FIG. 3, were in picomoles/10^6 cells and were the average of two or three determinations.

The nature of data set [17]: Cellular cytotoxicity in Vero E6 cells, MTT assay (Example 2). The conditions noted are these: African green monkey. In kind it is cell-based. On the procedure:
Ten thousand Vero E6 cells were seeded in 100 microliters of culture medium in 96 well plates. The following day serial two-fold dilutions of antiviral compounds or the DMSO-containing vehicle were added to each well. The USA WA-01 strain of SARS CoV-2 was added to each well at a multiplicity of infection of 0.1 thirty minutes later. Cells were incubated for 48 hours, washed twice in PBS and lysed with TRIzol. RNA was extracted using Directzol micro RNA columns. RNA was made into cDNA and assayed for the SARS CoV-2 spike protein and for a housekeeping gene (RPLPO) RNA by qPCR. Data represents the average of duplicate wells. Cellular cytotoxicity was also measured in VERO E6 cells. […] Cytotoxicity (CC50) was assessed using a commercially available MTT assay.
In general terms: Formazan colour is commonly taken as a measure of viable cells.

The nature of data set [18]: in vitro. Conditions: human. The source holds these as a separate data set.
Experimental: Cells were infected with 229E for 2 hours followed by treatment with the indicated dose of the indicated drug for 72 hours. The relative CPE was determined by measuring cell viability using an MTT assay. depicts the cytotoxicity in MRC-5 cells incubated in the presence of the indicated drug at the indicated concentration for 72 hours, after which cell viability was measured by the CellTiter-Glo assay. Data points indicate the averages from 3 independent experiments performed in duplicate. Error bars represent the standard error mean (SEM).
In data set [19] the test system is SARS-CoV-2 isolate USA-WA1/2020. In words: SARS-CoV-2 infection in Huh7.5 cells, qRT-PCR (Example 7). In kind it is cell-based. Conditions: CC50/EC50, Huh7.5 cells.
The conditions of data set [20]: after intravenous infusion, reported; cited from earlier work.
In data set [21] the test system is SARS-CoV-2 isolate USA-WA1/2020. Nature of the data set: SARS-CoV-2 infection in Vero E6 cells, qRT-PCR (Example 7). In kind it is cell-based.
For data set [22] the following is noted: reported, Siegel et al. 2017; cited from earlier work.
Data set [23] in a line: in vitro. The conditions noted are these: human. The source holds these as a separate data set.
Data set [24] can be described thus: in vitro. Conditions: human. This is another data set of the same source.
[25] abbreviates: Severe acute respiratory syndrome coronavirus 2, Vero C1008, Vero E6 cells, MOI 0.01, 48 hours.

Read-outs that look alike come from different tables or passages of the source.

Turning to `N#C[C@@]1(c2ccc3c(N)ncnn23)O[C@H](CO)[C@@H](O)[C@H]1O` [RVn, 2-C-(4-aminopyrrolo[2,1-f][1,2,4]triazin-7-yl)-2,5-anhydro-D-altrononitrile, reference compound], the “plasma levels of RVn versus EC90 for RVn in PSC lung cells and Vero E6 cells” value in data set [1] is given as “less than the EC90”. Moreover, the “time of peak plasma levels of RVn, the nucleoside metabolite of ODBG-P-RVn” value in data set [1] amounted to 3 h. Also, the CC50 at 48.5 h in data set [2], in data set [3], in data set [4], in data set [5], in data set [8] and in data set [9] was above 100 µM in each case. Further, the 90% effect concentration (EC90) (usually the point of the concentration-response curve where the effect stands at 90%) in data set [6] was determined as 1.75 µM; in data set [7] it was 2.62 µM.
With `CCCCCCCCCCCCCCCCCCOC[C@H](COP(=O)(O)OC[C@H]1O[C@@](C#N)(c2ccc3c(N)ncnn23)[C@H](O)[C@@H]1O)OCc1cccc(C#N)c1` [OD(3-CN-Bn)G-P-RVn, 1-O-Octadecyl-2-O-(3-cyanobenzyl)-sn-glyceryl-phospho-RVn], the figures for the SI in data set [10] (Calu 3) and in data set [12] were 1810 and 2066, respectively. The EC50 – broadly, the concentration at which the effect is half-maximal – was 0.034 ± 0.007 µM in data set [10] (Calu 3, read-out: EC50) and 0.024 ± 0.006 µM in data set [12] (read-out: EC50). Also, the EC90 in [10] (Calu 3, read-out: EC90) stood at 0.065 ± 0.036 µM; in [12] (read-out: EC90), 0.077 ± 0.017 µM. Further, the CC50 in data set [11] was determined as 61.6 µM; in [13], 49.6 µM.
With `CCC(CC)COC(=O)[C@H](C)N[P@](=O)(OC[C@H]1O[C@@](C#N)(c2ccc3c(N)ncnn23)[C@H](O)[C@@H]1O)Oc1ccccc1` [RDV, Remdesivir, reference compound], the CC50 at 48.5 h is above 100 µM in data set [14]; above 100 µM in data set [15]; above 100 µM in data set [3] (Vero E6 cells, Cell Titer Glo, 48.5 hours, read-out: CC50). Also, in data set [16], the “levels of remdesivir triphosphate (RVn-TP)” value was “below the level of quantification”. The CC50 in [17] and in [18] was above 50 µM throughout. The Selectivity in data set [19] is recorded as 253; in data set [21] (CC50/EC50, Vero E6 cells), 89.4. In addition, in [20], the “time persisting at virologically significant levels in plasma” value is “less than 2 hours”. This compound yielded an EC50 in data set [21] (setting [25]) of 1.13 µM. Also, in data set [21] (setting [25]), the 90% effect concentration (EC90) amounted to 7.05 µM. In addition, in data set [22], the “T1/2 ex vivo in human plasma” value was 1.15 h.
As to `CCCCCCCCCCCCCCCCCCOC[C@H](COP(=O)(O)OC[C@H]1O[C@@](C#N)(c2ccc3c(N)ncnn23)[C@@H](O)C1O)OCc1ccccc1C#N` (some centres unmarked) [OD(2-CN-Bn)G-P-RVn, 1-O-Octadecyl-2-O-(2-cyanobenzyl)-sn-glyceryl-phospho-RVn], the SI was 909 in [10] (Calu 3) and above 980 in data set [12]. The EC50 was 0.091 ± 0.025 µM in data set [10] (Calu-3) and 0.0102 ± 0.017 µM in data set [12]. Moreover, the results for the 90% effect concentration (EC90) in data set [10] (Calu-3) and in data set [12] were 0.186 ± 0.047 µM and 0.281 ± 0.03 µM, respectively. Further, the CC50 in data set [23] is above 100 µM; in [24] it was 82.8 µM.
